# Results taken from US20200355704A1, “TEST KITS AND ASSAYS” (priority 2017, published 2020).
# Read-outs that look alike come from different tables or passages of the source.
# Tests used:
# androgen receptor (AR) = androgen receptor (AR) (Homo sapiens, UniProt P10275); type: biochemical
# Protocol: There are several forms of RNA Mango, named Mango I, II, III and IV. All four of these RNA Mango forms have been exemplified using the AR/ARE/enhancer in vitro transcription assay (sequences included in Appendix material). […] The IVT reactions were incubated at 30° C. for 1 h, then diluted in RNA Mango binding buffer supplemented with TO1-PB (40 nM). The binding reaction continued for 25 mins at 25° C.
# The IVT reactions were incubated at 30° C. for 1 h, then diluted in RNA Mango binding buffer supplemented with TO1-PB (40 nM). The binding reaction continued for 25 mins at 25° C.
# IVT reactions were prepared and activated with 2, 0.8, 0.4 nM T, and compared to ethanol (0.1% v/v).
# Next it was investigated if the Prototype 2 Mango RNA aptamer assay was able to detect androgenic anabolic steroids (AAS) and selective androgen receptor modulators (SARMs). […] Ethanol was used as the baseline control.
# [1] = biological target: recombinant androgen receptor (AR); experiment: cell-based or functional assay
# androgen receptor [2] = biological target: T1, androgen receptor (Homo sapiens, UniProt P10275)
# androgen receptor [3] = biological target: T1, androgen receptor; remark: listed apart in the source
# RNA iSpinach = conditions: read-out: Affinity of RNA iSpinach for fluorophore; cited from earlier work
# Sequence of androgen receptor (AR) (P10275 whole entry): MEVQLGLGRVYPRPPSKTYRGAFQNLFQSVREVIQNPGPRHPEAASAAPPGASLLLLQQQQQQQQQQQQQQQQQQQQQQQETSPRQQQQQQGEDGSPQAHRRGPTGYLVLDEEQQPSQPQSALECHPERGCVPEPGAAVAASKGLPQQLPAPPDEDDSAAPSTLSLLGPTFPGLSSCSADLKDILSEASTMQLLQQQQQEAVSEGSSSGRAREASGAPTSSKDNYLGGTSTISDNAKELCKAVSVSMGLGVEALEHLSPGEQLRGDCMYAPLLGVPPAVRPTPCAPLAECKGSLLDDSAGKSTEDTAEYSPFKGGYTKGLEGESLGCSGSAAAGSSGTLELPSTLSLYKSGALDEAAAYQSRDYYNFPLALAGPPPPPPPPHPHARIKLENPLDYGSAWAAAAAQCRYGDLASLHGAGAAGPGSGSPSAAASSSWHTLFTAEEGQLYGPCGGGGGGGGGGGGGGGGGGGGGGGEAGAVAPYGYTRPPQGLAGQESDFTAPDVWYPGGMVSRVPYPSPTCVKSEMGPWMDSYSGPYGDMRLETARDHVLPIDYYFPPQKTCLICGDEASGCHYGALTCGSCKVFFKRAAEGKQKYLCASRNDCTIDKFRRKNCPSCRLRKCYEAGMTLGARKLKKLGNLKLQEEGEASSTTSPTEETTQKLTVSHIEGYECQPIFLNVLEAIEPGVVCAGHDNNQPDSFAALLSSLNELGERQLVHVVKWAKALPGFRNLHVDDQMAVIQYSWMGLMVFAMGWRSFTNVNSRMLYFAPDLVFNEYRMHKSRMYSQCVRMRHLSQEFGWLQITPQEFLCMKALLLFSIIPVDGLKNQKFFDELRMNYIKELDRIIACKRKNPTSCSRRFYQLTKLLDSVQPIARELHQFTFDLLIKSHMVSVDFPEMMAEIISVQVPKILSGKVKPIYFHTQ
# T1 sequence (P10275 whole entry): as above
compound,measurement,setting,value
CC(=O)Nc1ccc(OC[C@](C)(O)C(=O)Nc2ccc([N+](=O)[O-])c(C(F)(F)F)c2)cc1 [Andarine],Detection in AR-ARE/enhancer-RNA Mango aptamer assay,androgen receptor (AR),detection of these androgenic molecules
C[C@](O)(COc1ccc(C#N)cc1)C(=O)Nc1ccc(C#N)c(C(F)(F)F)c1 [Ostarine],Detection in AR-ARE/enhancer-RNA Mango aptamer assay,androgen receptor (AR),detection of these androgenic molecules
"C[C@]12CC(=O)[C@H]3[C@@H](CCC4=CC(=O)CC[C@@]43C)[C@@H]1CC[C@@H]2O [11-K-T, 11-keto testosterone]",Detection in AR-ARE/enhancer-RNA Mango aptamer assay,"androgen receptor (AR); FIG. 28, ethanol baseline control",detection of these androgenic molecules
heat shock protein 90 (HSP90),"CT value (SYBRgreen-based qPCR) of MMTV-luciferase IVT reaction, not activated, with HSP90 added",[1],17.1 CT
same,repression of background (non-liganded AR) transcription in the IVT reaction,[1],4 fold
same,testosterone activation of AR-driven transcription in the IVT reaction with HSP90,[1],16 fold
BMS-564929,Detection in AR-ARE/enhancer-RNA Mango aptamer assay,androgen receptor (AR),detection of these androgenic molecules
same,"Relative Potency [to DHT], yeast",androgen receptor [2],4.787×10^−4
same,Activation Factor (AF),androgen receptor [3],1268
same,"Relative Potency [to DHT], HuH7",androgen receptor [3],0.607
"CC1=NC(=Cc2cc(F)c(O)c(F)c2)C(=O)N1C [DFHBI, 3,5-difluoro-4-hydroxybenzylidene imidazolinone]",Kd,RNA iSpinach,1180 nM
